Reference: ChEMBL document CHEMBL3045595, “Synthesis and characterization of new types of 2-(6-methoxy-2-naphthyl)propionamide derivatives as potential antibacterial and antifungal agents” (2013)
≈ marks a conversion by molar mass, not a printed value. Calls of active or inactive are those of the source. The calls are words filed in the database; no cut-off is given here.

Legend:
Type in all cases: functional
Pseudomonas aeruginosa [1] = assay: Antibacterial activity against Pseudomonas aeruginosa RCMB 010043 at 1 mg/ml after 24 hrs by agar well diffusion method; conditions: for zone of inhibition at 1000 µg/mL: RCMB 010043, 24 h, read-out: DIZ
Bacillus subtilis [2] = assay: Antibacterial activity against Bacillus subtilis RCMB 010063 at 1 mg/ml after 24 hrs by agar well diffusion method; conditions: RCMB 010063, 24 h, read-out: DIZ
Escherichia coli [3] = assay: Antibacterial activity against Escherichia coli RCMB 000103 at 1 mg/ml after 24 hrs by agar well diffusion method; conditions: RCMB 000103, 24 h, read-out: DIZ
Candida albicans [4] = assay: Antifungal activity against Candida albicans RCMB 05035 at 1 mg/ml after 72 hrs by agar well diffusion method; conditions: for zone of inhibition at 1000 µg/mL: RCMB 05035, 72 h, read-out: DIZ
Aspergillus ochraceus [5] = assay: Antifungal activity against Aspergillus ochraceus RCMB 02593 at 1 mg/ml after 72 hrs by agar well diffusion method; conditions: RCMB 02593, 72 h, read-out: DIZ
Staphylococcus aureus [6] = assay: Antibacterial activity against Staphylococcus aureus RCMB 010027 at 1 mg/ml after 24 hrs by agar well diffusion method; conditions: RCMB 010027, 24 h, read-out: DIZ
Pseudomonas aeruginosa [7] = assay: Antibacterial activity against Pseudomonas aeruginosa RCMB 010043 after 24 hrs by twofold serial dilution method; conditions: RCMB 010043, 24 h
Bacillus subtilis [8] = assay: Antibacterial activity against Bacillus subtilis RCMB 010063 after 24 hrs by twofold serial dilution method; conditions: RCMB 010063, 24 h
Staphylococcus aureus [9] = assay: Antibacterial activity against Staphylococcus aureus RCMB 010027 after 24 hrs by twofold serial dilution method; conditions: RCMB 010027, 24 h
Escherichia coli [10] = assay: Antibacterial activity against Escherichia coli RCMB 000103 after 24 hrs by twofold serial dilution method; conditions: RCMB 000103, 24 h
Aspergillus ochraceus [11] = assay: Antifungal activity against Aspergillus ochraceus RCMB 02593
Candida albicans [12] = assay: Antifungal activity against Candida albicans RCMB 05035

SMILES	diameter of the inhibition zone (DIZ) (Pseudomonas aeruginosa [1])	zone of inhibition at 1000 µg/mL (Bacillus subtilis [2])	zone of inhibition at 1000 µg/mL (Escherichia coli [3])	zone of inhibition at 1000 µg/mL (Candida albicans [4])	zone of inhibition at 1000 µg/mL (Aspergillus ochraceus [5])	zone of inhibition at 1000 µg/mL (Staphylococcus aureus [6])	MIC (Pseudomonas aeruginosa [7])	MIC (Bacillus subtilis [8])	MIC (Staphylococcus aureus [9])	MIC (Escherichia coli [10])	MIC (Aspergillus ochraceus [11])	zone of inhibition at 1000 µg/mL (Pseudomonas aeruginosa [1])	MIC (Candida albicans [12])	diameter of the inhibition zone (DIZ) (Candida albicans [4])
COc1ccc2cc(C(C)C(=O)NNC(=O)C(C)c3ccc4cc(OC)ccc4c3)ccc2c1 (stereo not given)	inactive	19.4 mm	17.1 mm	13.5 mm	16 mm	17.9 mm	–	–	–	–	–	–	–	–
COc1ccc2cc(C(C)C(=O)Nc3ccc(CC(=O)O)cc3)ccc2c1 (stereo not given)	inactive	18.4 mm	16.6 mm	12.2 mm	13.9 mm	17.3 mm	–	–	–	–	–	–	–	–
O=C(O)c1cn(C2CC2)c2cc(N3CCNCC3)c(F)cc2c1=O [CIPROFLOXACIN]	–	–	–	–	–	–	31.2 µg/mL (≈ 94.3 µM)	0.007 µg/mL (≈ 0.0211 µM)	0.06 µg/mL (≈ 0.181 µM)	1.95 µg/mL (≈ 5.89 µM)	–	–	–	–
COc1ccc2cc(C(C)C(=O)Nc3ccc(C(=O)O)cc3)ccc2c1 (stereo not given)	–	23.7 mm	20.3 mm	15.6 mm	19.4 mm	21.6 mm	15.6 µg/mL (≈ 44.7 µM)	3.9 µg/mL (≈ 11.2 µM)	0.24 µg/mL (≈ 0.687 µM)	1.95 µg/mL (≈ 5.58 µM)	7.81 µg/mL (≈ 22.4 µM)	15.9 mm	62.5 µg/mL (≈ 179 µM)	–
COc1ccc2cc(C(C)C(=O)Nc3ccc(S(=O)(=O)Nc4ncccn4)cc3)ccc2c1 (stereo not given)	–	28.7 mm	21.6 mm	–	11.7 mm	25.3 mm	3.9 µg/mL (≈ 8.43 µM)	7.81 µg/mL (≈ 16.9 µM)	0.24 µg/mL (≈ 0.519 µM)	3.9 µg/mL (≈ 8.43 µM)	3.9 µg/mL (≈ 8.43 µM)	16.8 mm	inactive	inactive
COc1ccc2cc(C(C)C(=O)Nc3ccc4c(c3)Sc3ccccc3N4)ccc2c1 (stereo not given)	–	24.6 mm	20.2 mm	16.9 mm	17.6 mm	21.4 mm	7.81 µg/mL (≈ 18.3 µM)	0.97 µg/mL (≈ 2.27 µM)	3.9 µg/mL (≈ 9.14 µM)	7.81 µg/mL (≈ 18.3 µM)	15.6 µg/mL (≈ 36.6 µM)	13.6 mm	31.2 µg/mL (≈ 73.3 µM)	–
COc1ccc2cc(C(C)C(=O)NCc3n[nH]c(=S)n3N)ccc2c1 (stereo not given)	–	23.7 mm	20.3 mm	20.6 mm	19.4 mm	21.6 mm	62.5 µg/mL (≈ 175 µM)	0.97 µg/mL (≈ 2.71 µM)	3.9 µg/mL (≈ 10.9 µM)	7.81 µg/mL (≈ 21.8 µM)	15.6 µg/mL (≈ 43.7 µM)	15.9 mm	62.5 µg/mL (≈ 175 µM)	–
COc1ccc2cc(C(C)C(=O)Nc3ccc(N(C(C)=O)c4ccccc4)cc3)ccc2c1 (stereo not given)	inactive	17.1 mm	14.6 mm	9.3 mm	12.4 mm	16.2 mm	–	–	–	–	–	–	–	–
COc1ccc2cc(C(C)C(=O)Nc3ccc(S(=O)(=O)NC(C)=O)cc3)ccc2c1 (stereo not given)	–	23.4 mm	21.3 mm	17.8 mm	18.6 mm	23.3 mm	125 µg/mL (≈ 293 µM)	0.97 µg/mL (≈ 2.27 µM)	0.97 µg/mL (≈ 2.27 µM)	3.9 µg/mL (≈ 9.14 µM)	15.6 µg/mL (≈ 36.6 µM)	14.5 mm	31.2 µg/mL (≈ 73.3 µM)	–
COc1ccc2cc(C(C)C(=O)NC(C)C(=O)O)ccc2c1 (stereo not given)	inactive	15.8 mm	14.3 mm	10.6 mm	12.7 mm	15.1 mm	–	–	–	–	–	–	–	–
COc1ccc2cc(C(C)C(=O)NCc3n[nH]c(=S)[nH]3)ccc2c1 (stereo not given)	–	23.9 mm	20.9 mm	18.8 mm	20.2 mm	21.9 mm	31.2 µg/mL (≈ 91.3 µM)	0.97 µg/mL (≈ 2.83 µM)	3.9 µg/mL (≈ 11.4 µM)	7.81 µg/mL (≈ 22.8 µM)	7.81 µg/mL (≈ 22.8 µM)	16.8 mm	31.2 µg/mL (≈ 91.3 µM)	–
